In US20170216252A1, “ANTI-BACTERIAL PYRUVATE KINASE MODULATOR COMPOUNDS, COMPOSITIONS, USES AND METHODS” (SIMON FRASER UNIVERSITY, priority 2014, published 2017):
In brackets after ≈: the same amount, converted by molar mass. Like-named read-outs stand apart in the source and are kept apart here.

Assays:
[1] = molecular target: T1, MRSA PK (Staphylococcus aureus, UniProt Q6GG09); assay: MRSA PK activity, continuous LDH-coupled assay; type: biochemical, S. aureus (MRSA strain Sanger 252)
T1 construct: His tag (pET-28a(+) vector) (N); made in house; host or cells: E. coli BL-21 (DE3)
From the text: Genomic DNA of MRSA strain Sanger 252 extracted using DNeasy Tissue Kit™ (Qiagen™) was used as a template to generate the His-tagged MRSA PK. Human cDNA from MCF-7 breast cancer cell line (courtesy of Dr. J Wong, BC Cancer Research Center (Vancouver, Canada) was used as a template to generate the full-length human M2 PK enzyme. The following primer sets were used creating appropriate restriction sites (NdeI and XhoI sites underlined): For cloning of MRSA PK: M27F 5′-[…]-3′ and M27R 5′-[…]-3′, for cloning of human M2 PK isoform: hM2F 5′-[…]-3′ and hM2R 5′-[…]-3′. The resulting PCR fragments for each construct were cloned into the NdeI and XhoI unique sites of the bacterial expression vector pET-28a (+) (Novagen™). […] The sequence and the correct reading frame of all constructs were verified by sequencing. Human M1, R and L PK constructs in pET-28-a(+) vectors (courtesy of Dr. L. Cantley, Harvard Medical, School (Boston, USA)) were used to generate relevant recombinant His-tagged human PK isoforms.
MRSA and human constructs in pET-28a(+) were used to express relevant recombinant PK proteins in E. coli BL-21 (DE3). The proteins were expressed and purified using Ni-NTA agarose (Qiagen™) according to the manufacturer's protocol. Briefly, cells were grown to an absorbance of 0.4-0.5 at 600 nm in 2×YT medium, then induced with 0.1 mM IPTG for 3 h at 20° C. Cells were lysed by sonication on ice (3×10-s bursts with a 30-s recovery between bursts) in lysis buffer (0.2 mg/ml lysozyme, 50 mM Tris pH 7.5, 10 mM MgCl2, 200 mM NaCl, 100 mM KCl, 10% glycerol, 10 mM imidazole, 0.5% NP-40 and 1 mM DTT containing Complete™ protease inhibitor). Cell lysates were cleared by centrifugation (18,000×g in a Beckman™ JA-20 rotor) for 20 min at 4° C. and PK isoforms were purified by batch binding to Ni-NTA resin. The resins were then packed in columns (1×2 cm) and washed with 400 column volumes lysis buffer containing 30 mM imidazole. His-tagged PK isoforms were eluted with the same buffer containing 300 mM imidazole. The proteins were dialyzed overnight at 4° C. against 2000 volumes of ice-cold 30 mM Tris pH 7.5, 25 mM KCl, 5 mM MgCl2, 10% glycerol and 1 mM DTT to remove imidazole. All purification steps were done at 4° C.; enzymes were flash-frozen and stored at −70° C. […] Purity and physical integrity of proteins were assessed using SDS-polyacrylamide gel electrophoresis (SDS-PAGE) followed by coomassie blue staining. Protein concentration was estimated by Bradford assay (Bio-Rad Protein Assay™) using bovine serum albumin as a standard.
Candidate MRSA PK inhibitors were assayed for their ability to inhibit enzymatic activities of MRSA and human PKs. PK activity was determined using a continuous assay coupled to lactate dehydrogenase (LDH) in which the change in absorbance at 340 nm owing to oxidation of NADH was measured using a Benchmark Plus™ microplate spectrophotometer (Bio-Rad Laboratories, Hercules, Calif.). […] Reactions were initiated by the addition of 15 nM of one of the PK enzymes. PK activity proportional to the rate of change at 340 nm was expressed as specific activity (μmol/min/mg), which is defined as the amount of PK that catalyzes the formation of one micromole of either product per minute. Inhibitors were dissolved in DMSO with the final concentration of the solvent never exceeding 1% of the assay volume. IC50 values were calculated by curve fitting on a four-parameter dose-response model with variable slope using Graphpad Prism 5.0™ (GraphPad™ Software Inc., La Jolla, Calif.). […] Reactions were performed at 30° C. for up to 5 min. All values determined represent at least two measurements, in triplicate (Tables 1-6) or duplicate unless mentioned otherwise.

[2] = system: S. aureus ATCC 29213; assay: In vitro susceptibility, broth microdilution MIC; type: cell-based, Staphylococcus aureus; conditions: Staphylococcus aureus, read-out: MIC
Procedure: The antimicrobial activities of PK inhibitor candidates were determined using the 96-well microtiter standard 2-fold serial broth microdilution method as described by CLSI (formerly NCCLS) with the various gram-positive and gram-negative bacteria species mentioned above. Bacteria from a single colony were grown, overnight in either BHI Broth (VRE), mueller hinton broth (S. aureus 29213; MRSA USA400) or L-broth (E. coli, P. aeruginosa, S. typhimuriu, K. Pneumonia and A. baumannii). […] Culture plates were incubated for 18-24 h at 37° C., and optical density at 600 nm (OD600) was measured using a Benchmark Plus™ microplate spectrophotometer (Bio-Rad™). The absorbance control values for the series containing CAMHB and inhibitor were subtracted as background from the corresponding infected wells. The MIC was defined as the lowest concentration of test compound leading to complete inhibition of cell growth in relationship to compound-free control wells as determined by optical density. […] All assays were run in triplicate (Tables 1-6) or duplicate. Experiments were replicated at least twice to verify reproducibility using the above conditions.

[3] = ATCC29213, Table 8, tested at least in duplicate, differing values all given
[4] = read-out: % inhibition at the highest concentration tested (IC50)
[5] = ATCC29213, Tables 1-6 and text, minimum concentration to give >98% inhibition of growth

T1 sequence (Q6GG09 whole entry): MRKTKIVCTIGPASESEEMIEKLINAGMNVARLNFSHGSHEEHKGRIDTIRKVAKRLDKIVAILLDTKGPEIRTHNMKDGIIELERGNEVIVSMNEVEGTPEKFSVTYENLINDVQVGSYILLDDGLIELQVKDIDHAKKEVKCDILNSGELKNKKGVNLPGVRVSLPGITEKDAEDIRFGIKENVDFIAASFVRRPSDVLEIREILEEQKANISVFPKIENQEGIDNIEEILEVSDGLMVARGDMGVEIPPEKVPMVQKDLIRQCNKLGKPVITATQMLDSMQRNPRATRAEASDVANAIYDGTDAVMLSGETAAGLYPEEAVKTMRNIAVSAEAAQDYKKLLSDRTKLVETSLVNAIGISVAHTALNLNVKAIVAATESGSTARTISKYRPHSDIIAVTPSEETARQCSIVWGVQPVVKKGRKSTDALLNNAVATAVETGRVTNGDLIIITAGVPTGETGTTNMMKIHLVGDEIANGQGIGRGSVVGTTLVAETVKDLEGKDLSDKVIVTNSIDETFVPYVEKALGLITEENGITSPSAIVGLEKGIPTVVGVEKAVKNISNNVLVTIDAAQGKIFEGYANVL

`Brc1ccc2cc(CCc3cn4c(n3)CCCC4)[nH]c2c1` [Compound 126, 2-(2-(6-Bromo-1H-indol-2-yl)ethyl)-5,6,7,8-tetrahydroimidazo[1,2-a]pyridine] was tested, and the IC50 [1] was > 100000 nM and the MIC [2, 3] was 64 µg/mL (≈ 186 µM).

`COC(=O)c1c(C(=O)Nc2ccc(OC)cc2)[nH]c2cc(Br)ccc12` [Compound 133, Methyl 6-bromo-2-((4-methoxyphenyl)carbamoyl)-1H-indole-3-carboxylate] was tested, and the IC50 [1] was < 50 nM and the MIC [2, 3] was > 64 µg/mL.

For `O=C(O)c1c(/C=C/c2cc(Cl)cc(Cl)c2)[nH]c2cc(Br)ccc12` [Compound 150, (E)-6-Bromo-2-(3,5-dichlorostyryl)-1H-indole-3-carboxylic acid], the IC50 [1] was > 1000 nM and the MIC [2, 3] was 8 µg/mL (≈ 19.5 µM).

`O=C(Nc1nc2ccc(Br)cc2s1)c1cccc(Cl)c1O` [Compound 83, N-(6-bromobenzo[d]thiazol-2-yl)-3-chloro-2-hydroxybenzamide] was tested, and the inhibition at 1 µM [1, 4] was 89% and the MIC [2, 5] was 4 µg/mL (≈ 10.4 µM).

In the case of `O=C(c1c(CCc2ccc(Cl)nc2)[nH]c2cc(Br)ccc12)C(F)(F)F` [Compound 173, 1-(6-Bromo-2-(2-(6-chloropyridin-3-yl)ethyl)-1H-indol-3-yl)-2,2,2-trifluoroethanone], the IC50 [1] is reported as > 1000 nM and the MIC [2, 3] is reported as > 64 µg/mL.

With `Brc1ccc(-c2ccc(-c3cncc(-c4cc5ccccc5[nH]4)n3)cc2)cc1` [Compound 61, 2-(6-(4′-Bromo-[1,1′-biphenyl]-4-yl)pyrazin-2-yl)-1H-indole] the inhibition at 0.1 µM ([1]; read-out: % inhibition (IC50)) was 61% and the MIC [2, 5] was > 64 µg/mL.

For `O=C(c1cc2ccc(Br)cc2[nH]1)c1cc2ccccc2cc1O` [Compound 42, (6-Bromo-1H-indol-2-yl)(3-hydroxynaphthalen-2-yl)methanone], the inhibition at 10 µM [1, 4] was 72% and the MIC [2, 5] was > 64 µg/mL.

With `Brc1ccc2cc(/C=C/c3cn4ccccc4n3)[nH]c2c1` [Compound 110, (E)-2-(2-(6-Bromo-1H-indol-2-yl)vinyl)imidazo[1,2-a]pyridine] the IC50 [1] was < 50 nM and the MIC [2, 3] was > 64 µg/mL.

For `FC(F)(F)c1ccc(/C=C/c2cc3ccc(Br)cc3[nH]2)cc1` [Compound 102, (E)-6-Bromo-2-(4-(trifluoromethyl)styryl)-1H-indole], the IC50 [1] was 100 to 1000 nM and the MIC [2, 3] was 64 µg/mL (≈ 175 µM).

`Oc1ccc(Br)cc1-c1ccnc(-c2cc3ccc(Br)cc3[nH]2)c1` [Compound 86, 4-bromo-2-(2-(6-bromo-1H-indol-2-yl)pyridin-4-yl)phenol] was tested, and the inhibition at 10 µM [1, 4] was 62% and the MIC [2, 5] was > 64 µg/mL.

With `O=C(c1c(/C=C/c2ccc(Cl)cc2)[nH]c2cc(Br)c(F)cc12)C(F)(F)F` [Compound 175, (E)-1-(6-Bromo-2-(4-chlorostyryl)-5-fluoro-1H-indol-3-yl)-2,2,2-trifluoroethanone] the IC50 [1] was 100 to 1000 nM and the MIC [2, 3] was 2 µg/mL (≈ 4.48 µM).

With `Brc1ccc2cc(/C=C/c3ccccc3)[nH]c2c1` [Compound 36a, (E)-6-bromo-2-styryl-1H-indole] the IC50 [1] was 25 nM and the MIC [2, 5] was > 64 µg/mL.

`COC(=O)c1c(C(=O)Nc2ccc(Cl)cn2)[nH]c2cc(Br)ccc12` [Compound 137, Methyl 6-bromo-2-((5-chloropyridin-2-yl)carbamoyl)-1H-indole-3-carboxylate] was tested, and the EC50 [1] was 13.2 nM and the MIC [2, 3] was > 64 µg/mL.

In the case of `O=C(O)c1cc(Br)cc2[nH]c(/C=C/c3ccc(Cl)cc3)cc12` [Compound 158, (E)-6-Bromo-2-(4-chlorostyryl)-1H-indole-4-carboxylic acid], the IC50 [1] is reported as > 1000 nM and the MIC [2, 3] is reported as 32 µg/mL (≈ 85 µM).

`Brc1ccc2[nH]c(-c3ccc(-c4cc5cc(Br)ccc5[nH]4)s3)cc2c1` [Compound 43, 2,5-bis(5-Bromo-1H-indol-2-yl)thiophene] was tested, and the inhibition at 10 µM [1, 4] was 50% and the MIC [2, 5] was > 64 µg/mL.

For `Clc1ccc2[nH]c(-c3cc4ccc(Br)cc4[nH]3)nc2c1` [Compound 164, 2-(6-bromo-1H-indol-2-yl)-5-chloro-1H-benzo[d]imidazole], the IC50 [1] was < 50 nM and the MIC [2, 3] was 1 µg/mL (≈ 2.89 µM).

With `COc1ccc(Br)cc1C(=O)Nc1nc2ccc(Br)cc2s1` [Compound 68, 5-Bromo-N-(6-bromobenzo[d]thiazol-2-yl)-2-methoxybenzamide] the IC50 [1] was 8.3 nM and the MIC [2, 5] was > 64 µg/mL.

With `Brc1ccc2cc(-c3ccc(-c4cc5ccc(Br)cc5[nH]4)nn3)[nH]c2c1` [Compound 49, 3,6-bis(6-Bromo-1H-indol-2-yl)pyridazine] the inhibition at 10 µM [1, 4] was 70% and the MIC [2, 5] was > 32 µg/mL.

For `O=C(Nc1nc2ccc(Br)cc2s1)c1ccccc1O` [Compound 66], the inhibition at 10 µM [1, 4] was 59% and the MIC [2, 5] was > 64 µg/mL.

In the case of `Clc1cccc(/C=C/c2cc3ccc(Br)cc3[nH]2)c1` [Compound 96, (E)-6-Bromo-2-(3-chlorostyryl)-1H-indole], the IC50 [1] is reported as 100 to 1000 nM and the MIC [2, 3] is reported as > 64 µg/mL.

`Clc1ccc(/C=C/c2cc3ccc(Br)cc3[nH]2)nc1` [Compound 108, (E)-6-Bromo-2-(2-(5-chloropyridin-2-yl)vinyl)-1H-indole] was tested, and the IC50 [1] was 100 to 1000 nM and the MIC [2, 3] was > 64 µg/mL.

In the case of `Brc1ccc2cc(CCc3cn4ccccc4n3)[nH]c2c1` [Compound 125, 2-(2-(6-Bromo-1H-indol-2-yl)ethyl)imidazo[1,2-a]pyridine], the IC50 [1] is reported as > 1000 nM and the MIC [2, 3] is reported as > 64 µg/mL.

With `O=C(Nc1ccc(Br)cc1)c1cc2ccc(Br)cc2s1` [Compound 71, 6-bromo-N-(4-bromophenyl)benzo[b]thiophene-2-carboxamide] the inhibition at 10 µM [1, 4] was 55% and the MIC [2, 5] was > 64 µg/mL.

`O=C(O)c1c(/C=C/c2ccc(Br)cn2)[nH]c2cc(Br)ccc12` [Compound 153, (E)-6-Bromo-2-(2-(5-bromopyridin-2-yl)vinyl)-1H-indole-3-carboxylic acid] showed an IC50 [1] of 100 to 1000 nM and an MIC [2, 3] of 32 µg/mL (≈ 75.8 µM).

In the case of `Brc1ccc2cc(CNCc3ccccc3)[nH]c2c1` [Compound 146, N-Benzyl-1-(6-bromo-1H-indol-2-yl)methanamine], the IC50 [1] is reported as > 1000 nM and the MIC [2, 3] is reported as 32 µg/mL (≈ 102 µM).

For `Clc1ccc(NCc2cc3ccc(Br)cc3[nH]2)cc1` [Compound 147, N-((6-Bromo-1H-indol-2-yl)methyl)-4-chloroaniline], the EC50 [1] was 244 nM and the MIC [2, 3] was > 64 µg/mL.

In the case of `O=C(Nc1ccc(Cl)cc1)c1[nH]c2cc(Br)ccc2c1C(=O)O` [Compound 129, 6-Bromo-2-((4-chlorophenyl)carbamoyl)-1H-indole-3-carboxylic acid], the IC50 [1] is reported as < 50 nM and the MIC [2, 3] is reported as 16 µg/mL (≈ 40.6 µM).

In the case of `Clc1ccc(C#Cc2cc3ccc(Br)cc3[nH]2)nc1` [Compound 141, 6-bromo-2-((5-chloropyridin-2-yl)ethynyl)-1H-indole], the IC50 [1] is reported as 100 to 1000 nM and the MIC [2, 3] is reported as > 64 µg/mL.
